Test systems include HCC-2998 colon; HOP-62 NSCLC; MOLT-4 leukemia; NCI-H23 lung; NCI-H522 lung; RXF 393 renal; SF-268 CNS; SK-MEL-2 melanoma; SK-MEL-28 melanoma; SW-620 colon.
Common to all, as to test: NCI-60 cell line screen, 48 h

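Five concentrations, 48 hours, 96-well plates. GI50 marks 50% less growth. TGI is the concentration that stops growth completely.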

Take `COc1cc2c(cc1OCCCN1CCN(CCCOc3cc4c(cc3OC)C(=O)C3CCC[C@H]3C=N4)CC1)N=C[C@@H]1CCCC1C2=O` (stereo not given in full): the GI50 was 7.21 µM in the assay on HCC-2998 colon; 4.78 µM in the assay on HOP-62 NSCLC; 0.313 µM in the assay on MOLT-4 leukemia; 5.42 µM in the assay with NCI-H23 lung; 0.446 µM in the assay with NCI-H522 lung; 3 µM in the assay with RXF 393 renal. The GI50 was 3 µM in the assay on SF-268 CNS, 1.71 µM in the assay on SK-MEL-2 melanoma, 32.9 µM in the assay with SK-MEL-28 melanoma and 1.19 µM in the assay on SW-620 colon. The TGI in the assay with HCC-2998 colon was 17.5 µM; with HOP-62 NSCLC it was > 100 µM; in the assay on MOLT-4 leukemia it was 2.53 µM; with NCI-H23 lung it was 14.1 µM; in the assay on NCI-H522 lung, > 29.6 µM; in the assay with RXF 393 renal, 17.5 µM. Moreover, the TGI in the assay with SF-268 CNS is > 100 µM; in the assay on SK-MEL-2 melanoma it was 4.8 µM; in the assay with SK-MEL-28 melanoma, > 100 µM; in the assay on SW-620 colon, > 35 µM.

As for `CC1=C(C(=O)Nc2cc(F)c(F)cc2F)C(c2cccc([N+](=O)[O-])c2)C(C(=O)Nc2ccccc2C(F)(F)F)=C(C)N1` (stereo not given), the TGI with HCC-2998 colon was determined as 36.5 µM; in the assay with HOP-62 NSCLC, 54.5 µM; with MOLT-4 leukemia, 42 µM; in the assay with NCI-H23 lung, 46.5 µM; with NCI-H522 lung it was 34.7 µM; in the assay on RXF 393 renal, 46.2 µM. In addition, the TGI came to 54.6 µM with SF-268 CNS, 42.1 µM in the assay on SK-MEL-2 melanoma, 62.2 µM in the assay on SK-MEL-28 melanoma and 87.1 µM in the assay with SW-620 colon.

The record behind these values is PubChem BioAssay (NCI).
